Data taken from patent US4788206A, “Pentadieneamides” (Hoffmann-La Roche Inc., priority 1987, dated 1988).

What was measured:
[1] = biological target: T1, PAF Binding, dog platelets (Canis lupus familiaris, UniProt A0A8I3NSH0); assay: PAF Binding Assay (inhibition of 3H-PAF binding to washed dog platelets); details: dog platelets, 3H-PAF, 10 minutes at room temperature; read-out: Inhib of PAF Binding IC50
T1 construct: Washed platelets were prepared by resuspending the platelet pellet once with PBS containing 1 mM EDTA; from tissue; host or cells: washed platelets from dog blood
T1 sequence (A0A8I3NSH0 1-343): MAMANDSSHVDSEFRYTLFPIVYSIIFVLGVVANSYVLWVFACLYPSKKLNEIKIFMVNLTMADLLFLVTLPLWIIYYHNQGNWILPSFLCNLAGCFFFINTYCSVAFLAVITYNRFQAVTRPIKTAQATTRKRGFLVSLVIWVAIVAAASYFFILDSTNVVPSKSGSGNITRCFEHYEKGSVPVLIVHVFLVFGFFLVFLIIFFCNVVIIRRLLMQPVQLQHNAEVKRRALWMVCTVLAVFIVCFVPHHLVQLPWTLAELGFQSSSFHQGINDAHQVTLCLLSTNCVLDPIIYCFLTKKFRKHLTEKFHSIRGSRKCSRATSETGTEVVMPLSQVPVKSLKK
Method in brief: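 Washed dog platelets (2×10^7 per tube, in 0.1% BSA-PBS) incubated 10 min at room temperature with 3H-PAF and test analogs. Bound ligand separated by 1 min centrifugation through silicone oil; platelet pellet radioactivity counted by liquid scintillation.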

[2] = system: PAF-Induced Platelet Count Decrease; assay: PAF Induced Platelet Count Decrease; assay type: in vivo, guinea pig; details: Cavia porcellus, Platelet; 3 mg/Kg (route not given); read-out: Percent Inhib. of PAF-Induced Platelet Count Decrease, 3 mg/Kg
Procedure: PAF Induced Platelet Count Decrease
Male Hartley guinea pigs weighing between 500 and 900 grams were fed standard guinea pig chow and tap water ad libitum. PAF was solubilized in ethanol and stored as a 2 mM stock solution at -70° C. The stock solutuion of PAF was diluted to 1 pM in Tris buffer pH 7.4 and 0.1% BSA for all experiments.
(a) Intravenous Procedure
Guinea pigs were anesthetized with urethane (1.6 g/kg, i.p.). A catheter (PE50) was introduced into the right carotid artery for withdrawing blood. A second catheter PE10) was introduced into the jugular vein for injecting drugs and for administering the PAF challenge (75 ng/kg, i.v.). A control blood sample was obtained and platelets were counted in a whole blood platelet analyzer. PAF was then given and blood samples were taken 15, 30, and 60 seconds after the challenge for platelet counts. Fifteen minutes later, selected concentrations of the test compound were solubilized in DMSO and injected intravenously into a group of 4-6 animals. Only one concentration of antagonist was used in each animal group. Fifteen minutes after drug injection, blood smaples were taken before and 15, 30, and 60 sec after the PAF challenge, and analyzed for platelet number.
Animals were anesthetized with sodium pentobarbital (35 mg/kg. i.p.) and the caritoid artery and jugular vein were cannulated as described above. The cannulae were exteriorized at the base of the neck and the animals were allowed to recover. At least 18 hours after surgery, conscious unrestrained guinea pigs were used in the experiment. The animals were challenged two time with PAF (120 ng/kg. i.v.); the first to establish a consistent response to PAF and the second to serve as a control for the PAF challenge. Blood samples were taken before and 15, 30, and 45 seconds after PAF challenge and platelets were counted. Thirty minutes after the control PAF challenge, the animal were orally dosed with either gum acacia or the test compound. Animals were then challenged with PAF at 1, 3, 5, and 24 hours after the administration of the drug.
Data Analysis and Statistics
The % change, i.e., the difference in platelet number before and after PAF challenge was calculated by: [formula]
Statistical significance (p<0.05) of the difference between the mean PAF control and mean drug treated activity was determined with paried Students's t-test.

[3] = system: PAF-Induced Bronchoconstriction; assay: PAF Induced Bronchoconstriction Assay; assay type: in vivo, guinea pig; details: for Percent Inhib. of PAF-Induced Bronchoconstriction, mg/Kg i.v.: i.v. (dose not given), 1 minute pretreatment, PAF 1.0 μg/kg i.v.; for inhibition in vivo at 50 mg/kg: Cavia porcellus, po, 50 mg/Kg p.o., 2-hour pretreatment, read-out: Percent Inhib. of PAF-Induced Bronchoconstriction, 50 mg/Kg p.o.
Method in brief: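 Male Hartley guinea pigs, urethane-anesthetized (2 g/kg i.p.), ventilated, with succinylcholine 1.2 mg/kg i.v. and propranolol 0.1 mg/kg i.v. pretreatment. Compound given i.v. 1 min or by oral gavage 2 h before i.v. PAF challenge at 1.0 μg/kg. Peak tracheal pressure rise over baseline compared with control mean gives % inhibition.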

IC50 [1] | SMILES | inhibition in vivo at 3 mg/kg [2] | Percent Inhib. of PAF-Induced Bronchoconstriction, mg/Kg i.v. [3] | inhibition in vivo at 50 mg/kg [3]
150 nM | O=C(/C=C/C=C(c1cccc(C(F)(F)F)c1)c1cccc(C(F)(F)F)c1)NCCCCc1cccnc1 [(E)-5,5-bis[3-(trifluoromethyl)phenyl]-N-[4-(3-pyridinyl)butyl]-2,4-pentadienamide] | 83% | inactive | 
35 nM | COc1cccc(C(=C/C=C/C(=O)N[C@H](C)CCCc2cccnc2)c2cccc(OC)c2)c1 [[R-(E)]-5,5-bis (3-methoxyphenyl)-N-[1-methyl-4-(3-pyridinyl)butyl]-2,4-pentadienamide] | 31% | 87 ± 4% | 87 ± 8%
300 nM | COc1cccc(C(=C/C=C/C(=O)N[C@@H](C)CCCc2cccnc2)c2cccc(OC)c2)c1 [[S-(E)]-5,5-bis(3-methoxyphenyl)-N-[1-methyl-4-(3-pyridinyl)butyl]-2,4-pentadienamide] | 10% | 36 ± 4% | 10 ± 5%
